Source: article PMC9583322, “Vicinal Diaryl-Substituted Isoxazole and Pyrazole Derivatives with In Vitro Growth Inhibitory and In Vivo Antitumor Activity” (ACS Omega, 2022)

Experiments:
[1] = test system: MDA-MB-231 xenografts; assay: MDA-MB-231 breast cancer xenograft; format: in vivo, mouse; conditions: nude mice, 40 mg/kg oral, twice a week, 4 weeks
Method: (§1) Mahlavu cells (10 × 10^6 cells/mouse) prepared in 150 μL of DMEM were injected subcutaneously to the flank of 6–8 weeks old male athymic nude mice, while MDA-MB-231 cells (2 × 10^6cells/mouse) in 1:1 DMEM and matrigel were injected into mammary fat pad (MFP) of 6–8 weeks old female athymic nude mice. Tumor volume and mouse weight were measured twice a week using calipers. When the tumor volume reached ∼150 mm^3, xenografts were randomized into groups (6 mice per group), and the mice were administered subsequently with 11 or 85 (40 mg/kg in 0.5% hydroxypropyl methylcellulose plus 1% Tween 80) or vehicle by gavage feeding (3–4 days/week) for 4 weeks. The mice were sacrificed 30 days after initiation of the compound treatment and tumors were collected. Two-way ANOVA was performed for statistical significance by GraphPad Prism. All of the mice were maintained under a temperature-controlled environment with a 12 h light/dark cycle and received a standard diet and water ad libitum.

[2] = test system: 22 cancer cells of the NCI 60 cell line panel; assay: NCI-60 single-dose screen, text summary; format: cell-based; conditions: against 22 cancer cells, read-out: growth inhibition (GI) values in the range
Method: (§2) Moreover, in vitro single-dose anticancer screening of 11 and 85 at 10 μM was performed utilizing the stable panel of 60 cell lines comprising 9 different cancer types at the National Cancer Institute (NCI) under the Developmental Therapeutics Program (Table S1).[31]

[3] = test system: Mahlavu xenografts; assay: Mahlavu hepatocellular carcinoma xenograft; format: in vivo; conditions: 40 mg/kg oral; for reduction in tumor volume: Mahlavu xenografts, nude mice, twice a week, 4 weeks; for Tolerability of the administered dose: in all studies (Mahlavu and MDA-MB-231 xenografts), no significant bodyweight loss, toxic effects or mortality
Method: as §1

[4] = test system: NCI-H460; assay: NCI-60 single-dose screen; format: cell-based; conditions: Homo sapiens, NCI-H460, Non-Small Cell Lung Cancer, read-out: % Growth Inhibition (GI%)
Method: as §2

[5] = test system: OVCAR-8; assay: NCI-60 single-dose screen; format: cell-based; conditions: Homo sapiens, OVCAR-8, Ovarian Cancer, read-out: % Growth Inhibition (GI%)
Method: as §2

[6] = test system: RXF 393; assay: NCI-60 single-dose screen; format: cell-based; conditions: Homo sapiens, RXF 393, Renal Cancer, read-out: % Growth Inhibition (GI%)
Method: as §2

[7] = test system: KM12; assay: NCI-60 single-dose screen; format: cell-based; conditions: Homo sapiens, KM12, Colon Cancer, read-out: % Growth Inhibition (GI%)
Method: as §2

[8] = test system: HL-60 (TB); assay: NCI-60 single-dose screen; format: cell-based; conditions: Homo sapiens, Leukemia, read-out: % Growth Inhibition (GI%)
Method: as §2

[9] = test system: NCI-H522; assay: NCI-60 single-dose screen; format: cell-based; conditions: Homo sapiens, NCI-H522, Non-Small Cell Lung Cancer, read-out: % Growth Inhibition (GI%)
Method: as §2

[10] = test system: CCRF-CEM; assay: NCI-60 single-dose screen; format: cell-based; conditions: Homo sapiens, Leukemia, read-out: % Growth Inhibition (GI%)
Method: as §2

[11] = test system: Hep3B; assay: SRB cytotoxicity assay; format: cell-based; conditions: Homo sapiens, 72 h treatment
Method: (§3) HepG2, FOCUS, Hep3B, Mahlavu, Huh7, Hep40, and PLC-PRF-5 hepatocellular carcinoma cells; MCF-7, MDA-MB-231, MDA-MB-468, SKBR3, and ZR-75 breast cancer cells; and normal-like epithelial MCF-10A breast cells were cultured in low-glucose Dulbecco’s modified Eagle’s medium (DMEM) (Biological Industries-BI) supplemented with 10% fetal bovine serum (FBS) (Gibco/Thermo Fisher Scientific), 2 mM L-Glutamine (Gibco/Thermo Fisher Scientific), 100 Units/mL Penicillin/Streptomycin, and 0.1 mM non-essential amino acid (Gibco/Thermo Fisher Scientific). SNU475 hepatocellular carcinoma cells were maintained in RPMI (Biological Industries-BI) supplemented with 10% fetal bovine serum (FBS) (Gibco/Thermo Fisher Scientific), L-Glutamine (Gibco/Thermo Fisher Scientific), and 100 Units/mL Penicillin/Streptomycin, while ZR-75 breast cancer cells were cultured RPMI (Biological Industries-BI) supplemented with 10% fetal bovine serum (FBS) (Gibco/Thermo Fisher Scientific), 1× sodium pyruvate, and %4.5 glucose. Normal-like MCF-10A breast cells were sustained in DMEM/HAM’S F12 (Hyclone) supplemented with 10% fetal bovine serum (FBS) (Gibco/Thermo Fisher Scientific), EGF (20 ng/mL), Hydrocortisone ([…]), cholera toxin (100 ng/mL), insulin (10 μg/mL), and 100 Units/mL Penicillin/Streptomycin. The cells were cultivated at 37 °C in a humidified incubator under 5% CO2.
(§4) Mahlavu, FOCUS, SNU475 (1000 cell/well in 150 μL/well); Huh7, MCF7 (2500 cell/well in 150 μL/well); HepG2, Hep3B, SKBR3 (3000 cell/well in 150 μL/well); PLC-PRF-5, Hep40 (5000 cell/well in 150 μL/well); MDA-MB-231, MDA-MB-468, MCF10A (6000 cell/well in 150 μL/well); and ZR-75 (7500 cell/well in 150 μL/well) were cultured in 96-well plates and were inoculated in an incubator for 24 hours. The compounds were dissolved in dimethyl sulfoxide (DMSO) (Sigma, St Louis, MO) as a 20 mM stock solution. The treatment of cells with the compounds was done in a concentration range starting from 40 to 2.5 μM. The compounds which were below 2.5 μM were tested in a concentration range from 2.5 to 0.15 μM. End of the 72h compound treatment, the cells were fixed using 10% (v/v) trichloroacetic acid (MERCK) for an hour and washed with ddH2O, and left for air-drying. The fixed plates were stained with 50 μL of sulforhodamine B (SRB) solution (Sigma) at RT for 10 min. To remove unbound SRB dye, acetic acid was used to wash cells three times and left for drying. The protein-bound SRB was solubilized with 10 mM Tris-base (Sigma) and their absorbance was measured with a 96-well plate reader at 515 nm wavelength (ELx800, Biotek). The IC50 values of compounds were calculated in comparison with control group DMSO. Data with R^2 values larger than 0.9 are considered significant.

[12] = test system: PLC-PRF-5; assay: SRB cytotoxicity assay; format: cell-based; conditions: Homo sapiens, 72 h treatment
Method: as §3, §4

[13] = test system: MDA-MB468; assay: SRB cytotoxicity assay; format: cell-based; conditions: Homo sapiens, MDA-MB-468, 72 h treatment
Method: as §3, §4

[14] = test system: FOCUS; assay: SRB cytotoxicity assay; format: cell-based; conditions: Homo sapiens, 72 h treatment
Method: as §3, §4

[15] = test system: SKBR3; assay: SRB cytotoxicity assay; format: cell-based; conditions: Homo sapiens, SK-BR-3, 72 h treatment
Method: as §3, §4

[16] = test system: Hep40; assay: SRB cytotoxicity assay; format: cell-based; conditions: Homo sapiens, 72 h treatment
Method: as §3, §4

[17] = test system: ZR75; assay: SRB cytotoxicity assay; format: cell-based; conditions: Homo sapiens, 72 h treatment
Method: as §3, §4

[18] = test system: hepatocellular carcinoma and breast cancer cell lines; assay: SRB cytotoxicity, cell line panel; format: cell-based; conditions: Homo sapiens, range over hepatocellular carcinoma and breast cancer cell lines
Method: as §4

| Compound | decrease in tumor volumes as compared to the control group [1] [%] | inhibition at 10 µM [2] [%] | reduction in tumor volume [3] [%] | Tolerability of the administered dose [3] | inhibition at 10 µM [4] [%] | inhibition at 10 µM [5] [%] | inhibition at 10 µM [6] [%] | inhibition at 10 µM [7] [%] | inhibition at 10 µM [8] [%] | inhibition at 10 µM [9] [%] | inhibition at 10 µM [10] [%] | IC50 [11] [µM] | IC50 [12] [µM] | IC50 [13] [µM] | IC50 [14] [µM] | IC50 [15] [µM] | IC50 [16] [µM] | IC50 [17] [µM] | IC50 [18] [µM] |
| --- | --- | --- | --- | --- | --- | --- | --- | --- | --- | --- | --- | --- | --- | --- | --- | --- | --- | --- | --- |
| Cc1ccccc1COc1ccc(-c2noc(C)c2-c2ccc(Cl)cc2)cc1 [compound 11, 4-(4-Chlorophenyl)-5-methyl-3-(4-((2-methylbenzyl)oxy)phenyl)isoxazole] | ~50 | 45 to 100 | 85 | well tolerated | 45.3 | 24.2 | 29.8 | 45.7 | 82.3 | 74.5 | 61.8 | 3 | 9.5 | 2.8 | 2.1 | 3.5 | 8.6 | 7.6 | 0.7 to 9.5 |
| Cc1ccccc1COc1ccc(-c2ccnn2-c2ccc(Cl)cc2)cc1 [compound 85, 1-(4-Chlorophenyl)-5-(4-((2-methylbenzyl)oxy)phenyl)-1H-pyrazole] | ~50 | 45 to 100 | 40 | well tolerated | 41.7 | 24.8 | 39.7 | 49.3 | 86.7 | 70.9 | 57.6 | 7.9 | 6.5 | 1 | 2.4 | 1.8 | 5.2 | 5.5 | 0.7 to 9.5 |
